According to ChEMBL document CHEMBL1131489, “Dihydropyrancarboxamides related to zanamivir: a new series of inhibitors of influenza virus sialidases. 2. Crystallographic and molecular modeling study of complexes of 4-amino-4H-pyran-6-carboxamides and sialidase from influenza virus types A and B” (J Med Chem, 1998):

Biological target: Neuraminidase (Influenza A virus (A/Puerto Rico/8/1934(H1N1)), UniProt P03468)
Sequence (P03468 whole entry): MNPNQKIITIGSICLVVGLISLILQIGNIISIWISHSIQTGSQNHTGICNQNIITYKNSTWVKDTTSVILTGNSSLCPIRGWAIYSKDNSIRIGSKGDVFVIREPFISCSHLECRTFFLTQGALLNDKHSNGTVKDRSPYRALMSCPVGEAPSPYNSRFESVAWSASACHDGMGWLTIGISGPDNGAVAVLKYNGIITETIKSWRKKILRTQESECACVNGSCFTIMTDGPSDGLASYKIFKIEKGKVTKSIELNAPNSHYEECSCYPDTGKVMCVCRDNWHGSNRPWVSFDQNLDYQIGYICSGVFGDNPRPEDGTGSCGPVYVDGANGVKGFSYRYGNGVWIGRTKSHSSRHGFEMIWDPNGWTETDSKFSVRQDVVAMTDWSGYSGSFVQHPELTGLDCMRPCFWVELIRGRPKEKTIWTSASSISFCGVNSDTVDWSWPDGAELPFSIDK

CC(=O)N[C@H]1[C@H]([C@H](O)[C@H](O)CO)O[C@](O)(C(=O)O)C[C@@H]1O
IC50: 1 mM
